From patent US8796256B2 (Janssen Pharmaceutica NV, priority 2010, dated 2014)

Each compound was assayed against T1, ERR1 (also known as ERR-α or ERR-1) (Homo sapiens, UniProt P11474) (assay: TR-FRET assay (disruption of co-activator peptide binding to ERR1 LBD)). Conditions: 6 nM 6His-ERR1LBD, 6 nM GST-SRC-2 peptide; average of 3 independent experiments.
T1 sequence (P11474 193-421 limits assumed): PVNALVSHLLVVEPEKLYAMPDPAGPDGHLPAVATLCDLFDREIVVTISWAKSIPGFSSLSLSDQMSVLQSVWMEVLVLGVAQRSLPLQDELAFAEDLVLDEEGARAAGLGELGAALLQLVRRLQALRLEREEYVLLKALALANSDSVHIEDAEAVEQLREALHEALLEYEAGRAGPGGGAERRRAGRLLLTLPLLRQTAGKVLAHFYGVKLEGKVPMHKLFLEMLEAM
Assay type: biochemical
How it was run: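 Homogeneous TR-FRET measuring displacement of GST-hSRC2 co-activator peptide (6 nM) from His-tagged ERR1 LBD (6 nM), detected with α-GST Eu cryptate (30 nM) and α-His-XL665 (7.5 nM). Buffer 25 mM Tris pH 8, 2.5 mM Hepes, 20 mM KCl, 1 mM DTT, 0.05 mg/mL delipidated BSA; equilibration 4-18 h at 25° C. Hyperbolic dose-response fit, mean of 3 experiments.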

Row | SMILES | EC50
1 | O=C1S/C(=C\c2ccc3c(cnn3Cc3ccc(Cl)cc3C(F)(F)F)c2)C(=O)N1CCN1CCNCC1 [Compound 163, (5Z)-5-({1-[4-Chloro-2-(trifluoromethyl)benzyl]-1H-indazol-5-yl}methylidene)-3-(2-piperazin-1-ylethyl)-1,3-thiazolidine-2,4-dione] | 38 nM
2 | COC(=O)CN1C(=O)S/C(=C\c2ccc3c(cnn3[C@H]3CCc4cc(Cl)ccc43)c2)C1=O [Compound 171, Methyl [(5Z)-5-({1-[(1S)-5-chloro-2,3-dihydro-1H-inden-1-yl]-1H-indazol-5-yl}methylidene)-2,4-dioxo-1,3-thiazolidin-3-yl]acetate] | 29 nM
3 | O=C1S/C(=C\c2ccc3c(cnn3[C@H]3CCc4cc(Cl)ccc43)c2)C(=O)N1CCN1CCCC1 [Compound 172, (5Z)-5-({1-[(1S)-5-Chloro-2,3-dihydro-1H-inden-1-yl]-1H-indazol-5-yl}methylidene)-3-(2-pyrrolidin-1-ylethyl)-1,3-thiazolidine-2,4-dione] | 300 nM
4 | O=C(O)CN1C(=O)S/C(=C\c2ccc3c(cnn3[C@H]3CCc4cc(Cl)ccc43)c2)C1=O [Compound 173, [(5Z)-5-({1-[(1S)-5-Chloro-2,3-dihydro-1H-inden-1-yl]-1H-indazol-5-yl}methylidene)-2,4-dioxo-1,3-thiazolidin-3-yl]acetic acid] | 70 nM
5 | N[C@@H]1CCCC[C@H]1N1C(=O)S/C(=C\c2ccc3c(cnn3Cc3ccc(Cl)cc3C(F)(F)F)c2)C1=O [Compound 174, (5Z)-3-[(1R,2R)-2-Aminocyclohexyl]-5-({1-[4-chloro-2-(trifluoromethyl)benzyl]-1H-indazol-5-yl}methylidine)-1,3-thiazolidine-2,4-dione] | 150 nM
6 | N[C@H]1CC[C@H](N2C(=O)S/C(=C\c3ccc4c(cnn4Cc4ccc(Cl)cc4C(F)(F)F)c3)C2=O)CC1 [Compound 176, (5Z)-3-(trans-4-Aminocyclohexyl)-5-({1-[4-chloro-2-(trifluoromethyl)benzyl]-1H-indazol-5-yl}methylidene)-1,3-thiazolidine-2,4-dione] | 58 nM
7 | O=C(O)CN1C(=O)S/C(=C\c2ccc3c(cnn3[C@@H]3CCc4cc(Cl)ccc43)c2)C1=O [Compound 179, [(5Z)-5-({1-[(1R)-5-Chloro-2,3-dihydro-1H-inden-1-yl]-1H-indazol-5-yl}methylidene)-2,4-dioxo-1,3-thiazolidin-3-yl]acetic acid] | 3450 nM
8 | COC(=O)[C@@H]1C[C@@H](N2C(=O)S/C(=C\c3ccc4c(cnn4Cc4ccc(Cl)cc4C(F)(F)F)c3)C2=O)CN1 [Compound 180, Methyl (4R)-4-[(5Z)-5-({1-[4-chloro-2-(trifluoromethyl)benzyl]-1H-indazol-5-yl}methylidene)-2,4-dioxo-1,3-thiazolidin-3-yl]-L-prolinate] | 32 nM
9 | O=C1S/C(=C\c2ccc3c(cnn3Cc3ccc(Cl)cc3C(F)(F)F)c2)C(=O)N1C[C@@H]1C[C@@H](O)CN1 [Compound 182, (5Z)-5-({1-[4-Chloro-2-(trifluoromethyl)benzyl]-1H-indazol-5-yl}methylidene)-3-{[(2S,4R)-4-hydroxypyrrolidin-2-yl]methyl}-1,3-thiazolidine-2,4-dione] | 96 nM
10 | O=C1S/C(=C\c2ccc3c(cnn3Cc3ccc(Cl)cc3C(F)(F)F)c2)C(=O)N1C[C@@H]1C[C@@H](F)CN1 [Compound 184, (5Z)-5-({1-[4-Chloro-2-(trifluoromethyl)benzyl]-1H-indazol-5-yl}methylidene)-3-{[(2S,4R)-4-fluoropyrrolidin-2-yl]methyl}-1,3-thiazolidine-2,4-dione] | 140 nM
11 | CS(=O)(=O)NC(=O)CN1C(=O)S/C(=C\c2ccc3c(cnn3Cc3ccc(F)cc3C(F)(F)F)c2)C1=O [Compound 185, 2-[(5Z)-5-({1-[4-Fluoro-2-(trifluoromethyl)benzyl]-1H-indazol-5-yl}methylidene)-2,4-dioxo-1,3-thiazolidin-3-yl]-N-(methylsulfonyl)acetamide] | 277 nM
12 | O=C1S/C(=C\c2ccc3c(cnn3Cc3ccc(Cl)cc3C(F)(F)F)c2)C(=O)N1C[C@@H]1C[C@@H](O)CN1CCO [Compound 186, (5Z)-5-({1-[4-Chloro-2-(trifluoromethyl)benzyl]-1H-indazol-5-yl}methylidene)-3-{[(2S,4R)-4-hydroxy-1-(2-hydroxyethyl)pyrrolidin-2-yl]methyl}-1,3-thiazolidine-2,4-dione] | 54 nM
13 | COCCN1C[C@H](O)C[C@H]1CN1C(=O)S/C(=C\c2ccc3c(cnn3Cc3ccc(Cl)cc3C(F)(F)F)c2)C1=O [Compound 188, (5Z)-5-({1-[4-Chloro-2-(trifluoromethyl)benzyl]-1H-indazol-5-yl}methylidene)-3-{[(2S,4R)-4-hydroxy-1-(2-methoxyethyl)pyrrolidin-2-yl]methyl}-1,3-thiazolidine-2,4-dione] | 60 nM
14 | COCCN1CCO[C@H](CN2C(=O)S/C(=C\c3ccc4c(cnn4Cc4ccc(Cl)cc4C(F)(F)F)c3)C2=O)C1 [Compound 189, (5Z)-5-({1-[4-Chloro-2-(trifluoromethyl)benzyl]-1H-indazol-5-yl}methylidene)-3-{[(2S)-4-(2-methoxyethyl)morpholin-2-yl]methyl}-1,3-thiazolidine-2,4-dione] | 160 nM
15 | COCCN1C[C@H](F)C[C@H]1CN1C(=O)S/C(=C\c2ccc3c(cnn3Cc3ccc(Cl)cc3C(F)(F)F)c2)C1=O [Compound 190, (5Z)-5-({1-[4-Chloro-2-(trifluoromethyl)benzyl]-1H-indazol-5-yl}methylidene)-3-{[(2S,4R)-4-fluoro-1-(2-methoxyethyl)pyrrolidin-2-yl]methyl}-1,3-thiazolidine-2,4-dione] | 410 nM

The remaining compounds from weak to strong by EC50, led by results:

Row | EC50 | SMILES
16 | 9700 nM | O=C1S/C(=C\c2ccc3c(cnn3[C@@H]3CCc4cc(Cl)ccc43)c2)C(=O)N1CCN1CCCC1 [Compound 178, (5Z)-5-({1-[(1R)-5-Chloro-2,3-dihydro-1H-inden-1-yl]-1H-indazol-5-yl}methylidene)-3-(2-pyrrolidin-1-ylethyl)-1,3-thiazolidine-2,4-dione]
17 | 6000 nM | COC(=O)CN1C(=O)S/C(=C\c2ccc3c(cnn3[C@@H]3CCc4cc(Cl)ccc43)c2)C1=O [Compound 177, Methyl [(5Z)-5-({1-[(1R)-5-chloro-2,3-dihydro-1H-inden-1-yl]-1H-indazol-5-yl}methylidene)-2,4-dioxo-1,3-thiazolidin-3-yl]acetate]
18 | 170 nM | O=C1S/C(=C\c2ccc3c(cnn3Cc3ccc(Cl)cc3C(F)(F)F)c2)C(=O)N1C[C@@H]1CNCCO1 [Compound 183, (5Z)-5-({1-[4-Chloro-2-(trifluoromethyl)benzyl]-1H-indazol-5-yl}methylidine)-3-[(2S)-morpholin-2-ylmethyl]-1,3-thiazolidine-2,4-dione]
19 | 47 nM | O=C1S/C(=C\c2ccc3c(cnn3Cc3ccc(Cl)cc3C(F)(F)F)c2)C(=O)N1CCC1CCNCC1 [Compound 164, (5Z)-5-({1-[4-Chloro-2-(trifluoromethyl)benzyl]-1H-indazol-5-yl}methylidene)-3-(2-piperidin-4-ylethyl)-1,3-thiazolidine-2,4-dione]
20 | 35 nM | CC1(C)CC(N2C(=O)S/C(=C\c3ccc4c(cnn4Cc4ccc(Cl)cc4C(F)(F)F)c3)C2=O)CC(C)(C)N1 [Compound 175, (5Z)-5-({1-[4-Chloro-2-(trifluoromethyl)benzyl]-1H-indazol-5-yl}methylidene)-3-(2,2,6,6-tetramethylpiperidin-4-yl)-1,3-thiazolidine-2,4-dione]
21 | 34 nM | NS(=O)(=O)CN1C(=O)S/C(=C\c2ccc3c(cnn3Cc3ccc(Cl)cc3C(F)(F)F)c2)C1=O [Compound 165, 1-[(5Z)-5-({1-[4-Chloro-2-(trifluoromethyl)benzyl]-1H-indazol-5-yl}methylidene)-2,4-dioxo-1,3-thiazolidin-3-yl]methanesulfonamide]
22 | 32 nM | CC(C)[C@H](N)CN1C(=O)S/C(=C\c2ccc3c(cnn3Cc3ccc(Cl)cc3C(F)(F)F)c2)C1=O [Compound 162, (5Z)-3-[(2S)-2-Amino-3-methylbutyl]-5-({1-[4-chloro-2-(trifluoromethyl)benzyl]-1H-indazol-5-yl}methylidene)-1,3-thiazolidine-2,4-dione]
23 | 32 nM | NC(CN1C(=O)S/C(=C\c2ccc3c(cnn3Cc3ccc(Cl)cc3C(F)(F)F)c2)C1=O)C(F)(F)F (centres unmarked) [Compound 169, (5Z)-3-(2-Amino-3,3,3-trifluoropropyl)-5-({1-[4-chloro-2-(trifluoromethyl)benzyl]-1H-indazol-5-yl}methylidene)-1,3-thiazolidine-2,4-dione]
24 | 29 nM | COC[C@@H](N)CN1C(=O)S/C(=C\c2ccc3c(cnn3Cc3ccc(Cl)cc3C(F)(F)F)c2)C1=O [Compound 168, (5Z)-3-[(2S)-2-Amino-3-methoxypropyl]-5-({1-[4-chloro-2-(trifluoromethyl)benzyl]-1H-indazol-5-yl}methylidene)-1,3-thiazolidine-2,4-dione]
25 | 27 nM | O=C1S/C(=C\c2ccc3c(cnn3Cc3ccc(Cl)cc3C(F)(F)F)c2)C(=O)N1C[C@@H]1CN(CCO)CCO1 [Compound 187, (5Z)-5-({1-[4-Chloro-2-(trifluoromethyl)benzyl]-1H-indazol-5-yl}methylidene)-3-{[(2S)-4-(2-hydroxyethyl)morpholin-2-yl]methyl}-1,3-thiazolidine-2,4-dione]
26 | 25 nM | O=C(O)[C@@H]1C[C@@H](N2C(=O)S/C(=C\c3ccc4c(cnn4Cc4ccc(Cl)cc4C(F)(F)F)c3)C2=O)CN1 [Compound 181, (4R)-4-[(5Z)-5-({1-[4-Chloro-2-(trifluoromethyl)benzyl]-1H-indazol-5-yl}methylidene)-2,4-dioxo-1,3-thiazolidin-3-yl]-L-proline]
